Measurements reported in PMC6941952, “A homogeneous bioluminescent immunoassay to probe cellular signaling pathway regulation” (Communications Biology, 2020).
Where “and” joins values, the source holds several entries; their conditions need not be identical. Identical values can stand only once.

Tested on: phospho-IκBα (Ser32)
Assay: NanoBiT cell-based immunoassay, phosphorylated IκBα in MCF-7 cells
Set-up: species or system human
Experimental: Prior to NanoBiT Cell-Based Immunoassay, 50,000 cells were seeded in 160 µl of complete growth media per well of a 96-well plate and incubated overnight. The cells were checked under microscope and it was determined that 50,000 cells per well in 96-well plate is under 90% confluency for all cells tested. If necessary, the cell culture media were replaced with serum-free media after the cells were stably adherent on the plate and incubated overnight. To treat cells with activators or inhibitors, medium was changed to 30 µl of medium containing inhibitors. If activation of a specific pathway is needed, the cells were stimulated with 10 µl of medium containing activators. To lyse the cells, 10 µl of lysis buffer containing 0.1% digitonin diluted in 1X immunoassay buffer with protease and phosphatase inhibitors was added and the plates were mixed vigorously for 20 min. Then, 50 µl of an antibody mix containing two primary antibodies against the target protein and NanoBiT detecting antibodies (0.3 µl each per well), diluted in 1X immunoassay buffer was added to the lysates. The plates were incubated at 23 °C for 90 min, followed by the addition of 25 µl of Nano-Glo® reagent consisting of Nano-Glo® Luciferase Assay Substrate mixed with 1X immunoassay buffer. Luminescence was measured using a plate-reading luminometer.
In all, 50,000 MCF-7 cells were seeded in 160 µl complete growth medium per well of a 96-well plate and incubated overnight. Half of the cells were treated with 50 ng per ml TNFα and half with vehicle. Cells were lysed as described above and a mixture of NanoBiT secondary antibodies with primary antibodies at the matrix concentrations described in Fig. 2a were added. After 90 min incubation, the Nano-Glo® reagent was added to the reactions as described above and luminescence was measured using a plate-reading luminometer.
Single dose or dose response inhibitor treatments were performed prior to activation of the pathways as follows. For IκBα, the cells were treated in 30 µl medium with IKK16 or MG132 for 60 min before the addition of 10 µl of DMEM containing appropriate concentration of TNFα. To measure phosphorylation of AKT or STAT3, the corresponding NanoBiT immunoassays were developed with MCF-7 or A431 cells, respectively, according the same scheme used to develop the IκBα assay using the primary antibodies for AKT and STAT3 described in the reagents section. For the AKT assay, MCF-7 cells were incubated overnight in phenol-red free DMEM medium (Gibco #21063-029) without serum. Treatment with LY294002 was performed in 30 µl medium and cells were incubated for 60 min before the addition of 1 µM Insulin. To measure STAT3 phosphorylation, A431 cells were incubated overnight in DMEM medium without serum. […] After addition of the stimulators, the cells were incubated for additional times as follows. IκBα phosphorylation and degradation analyses required both time courses and single time points as described in figures. […] The NanoBiT immunoassay protocol was followed as described above.
All 96-well assay plates were read using a GloMax® 96 Microplate Luminometer from Promega. The instrument was set to 0.5 s integration time. In order to obtain net change of signal, the reagent background values (signal from the well containing all reagent except primary antibodies) were subtracted from the sample values. To plot and analyze the data, Microsoft Excel and GraphPad Prism® Software were used. IC50 values were determined by using a nonlinear regression fit to a sigmoidal dose response (variable slope).

SMILES: O=C(c1ccc(Nc2nccc(-c3cc4ccccc4s3)n2)cc1)N1CCC(N2CCCC2)CC1 [IKK16]
- P-IkB Raw data (Figure 3a and 3b): 17490 and 17630 and 17730
- P-IkB Subtract reagent background (Figure 3a and 3b): 280 and 420 and 520
- P-IkB Average (Figure 3a and 3b, background subtracted): 407
- TNFα-induced phosphorylation of IκBα on serine 32 (MCF-7 cells, 10 µM 1 h, TNFα 50 ng per ml 10 min): suppressed
